In brackets after ≈: the same amount, converted by molar mass.
Legend:
MRSA 252 [1] = experiment: MIC, broth micro-dilution; type: cell-based, Staphylococcus aureus; conditions: Staphylococcus aureus, read-out: MIC
Summary of the method: (§1)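 Broth micro-dilution followed CLSI 2017: 1:2 antibiotic dilutions in TSB were inoculated at 5×10^5 CFU/mL. OD was recorded every 12 min over 18 h at 37 °C, and MIC was derived from sigmoidal dose-response fits.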

MSSA 476 [2] = experiment: MIC, broth micro-dilution; type: cell-based, Staphylococcus aureus; conditions: Staphylococcus aureus, MSSA, read-out: MIC
Summary of the method: as §1

MRSA 252 [3] = experiment: Disc diffusion (Kirby-Bauer), zone of inhibition; type: cell-based, Staphylococcus aureus; conditions: Staphylococcus aureus, 500 μg/mL, '/' = no zone, read-out: Zone of inhibition
Summary of the method: (§2)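 Kirby-Bauer per CLSI 2017: 1 in 200 dilutions of overnight cultures (LB for Gram-negatives, TSB for Gram-positives) spread on Mueller-Hinton agar. Discs loaded with 50 μL antibiotic were added and plates incubated 24 h at 37 °C. Zone of inhibition recorded.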

MSSA 476 [4] = experiment: Disc diffusion (Kirby-Bauer), zone of inhibition; type: cell-based, Staphylococcus aureus; conditions: Staphylococcus aureus, 500 μg/mL, '/' = no zone, read-out: Zone of inhibition
Summary of the method: as §2

[5] = tested on: Staphylococcus aureus 15981; experiment: Disc diffusion (Kirby-Bauer), zone of inhibition; type: cell-based; conditions: Staphylococcus aureus 15981; 500 μg/mL; '/' = no zone; read-out: Zone of inhibition
Summary of the method: as §2

[6] = tested on: various Staphylococcus aureus strains; experiment: Disc diffusion, Staphylococcus aureus strain study; type: cell-based; conditions: Staphylococcus aureus, 500 μg/mL
Description: At this point in the study it was decided to perform a disc diffusion assay study on 50 S. aureus strains. […] Moreover, by employing a range of mutant strains of S. aureus with specific gene-deletions, it was believed that if particular strains were resistant to the lead compounds, it could provide insights on the likely protein target of the lead antibiotics. However, all six of the compounds utilized in this study were able to inhibit growth of all 50 strains of S. aureus assayed at the chosen concentration of 500 μg/mL concentration (Table 5).
E. coli DH5α, P. aeruginosa PA01 and the 53 S. aureus strains were recovered from frozen (−80° C.) glycerol (15% v/v) stocks on Lysogeny agar (LA)—Gram negative and trypticase soy agar (TSA)—plates at 37° C. for 24 hours. Single colonies were placed in either 3 mL Lysogeny broth (LB)—Gram negative or trypticase soy broth (TSB)—Gram positive and incubated at 37° C., 250 rpm for 18 hours.
The antibiotic activity was determined using a Kirby-Bauer method according to Clinical Standard Laboratory Institute (CSLI) Guidelines (2017). Briefly, 180 μL of a 1 in 200 dilution (in LB or TSB) of overnight cultures of selected Gram negative and Gram positive bacteria were applied to an agar plate containing the solid growth medium, Mueller-Hinton agar (MHA). Sterile discs, inoculated with 50 μL of antibiotic, were first added to the agar plate before the plates were incubated for 24 hours at 37° C. Following incubation, the zone of inhibition (if it existed) was recorded.

HEK293 cells = experiment: Cytotoxicity assay, resazurin (CO-ADD)
Protocol: The cytotoxicity studies were performed by CO-ADD (The Community for Open Antimicrobial Drug Discovery), funded by the Wellcome trust (UK) and the University of Queensland, Australia.^(28) In this study, the compounds were screened against a human embryonic kidney cell line, HEK293, at a set concentration of 32 μg/mL.
DMEM supplemented with 10% FBS was used as growth media and the cells were incubated together with the compounds for 20 hours at 37° C. in 5% CO2.
Cytotoxicity (or cell viability) was measured by fluorescence, excitation: 560/10 nm, emission: 590/10 nm (F560/590), after addition of 5 μL of 25 μg/mL Resazurin (2.3 μg/mL final concentration) and after incubation for further 3 h at 37° C. in 5% CO2. The fluorescence intensity was measured using a Tecan M1000 Pro monochromator plate reader, using automatic gain calculation CC50 (concentration at 50% cytotoxicity) were calculated by curve fitting the inhibition values vs. log(concentration) using sigmoidal dose-response function, with variable fitting values for bottom, top and slope. The curve fitting was implemented using Pipeline Pilot's dose-response component.

red blood cells = experiment: Hemolysis assay (CO-ADD); type: cell-based; conditions: 32 μg/mL highest concentration tested
Description: A problem often encountered by emerging drugs is hemolysis, also known as drug-induced immune hemolytic anemia.

## [C-]#[N+]/C=C/c1ccc(O)cc1/C=C/c1ccccc1 [Compound 36, 4-((E Z)-2-Isocyanovinyl)-3-((E)-styryl)phenol]
MRSA 252 [1]
  MIC: 15 mg/L (≈ 60.7 µM)
MSSA 476 [2]
  MIC: 12 mg/L (≈ 48.5 µM)
MRSA 252 [3]
  zone of inhibition at 500 µg/mL: 28 mm
MSSA 476 [4]
  zone of inhibition at 500 µg/mL: 30 mm
[5]
  zone of inhibition at 500 µg/mL: 30 mm
[6]; strain ASARM 61
  zone of inhibition at 500 µg/mL: 29 mm
[6]; strain ASARM 70
  zone of inhibition at 500 µg/mL: 28 mm
[6]; strain ASARM 71
  zone of inhibition at 500 µg/mL: 26 mm
[6]; strain ASARM 72
  zone of inhibition at 500 µg/mL: 26 mm
[6]; strain ASARM 73
  zone of inhibition at 500 µg/mL: 29 mm
[6]; strain ASARM 75
  zone of inhibition at 500 µg/mL: 32 mm
[6]; strain ASARM 76
  zone of inhibition at 500 µg/mL: 34 mm
[6]; strain ASARM 77
  zone of inhibition at 500 µg/mL: 34 mm
[6]; strain ASARM 79
  zone of inhibition at 500 µg/mL: 29 mm
[6]; strain ASARM 80
  zone of inhibition at 500 µg/mL: 30 mm
[6]; strain EOE 3
  zone of inhibition at 500 µg/mL: 30 mm
[6]; strain EOE 23
  zone of inhibition at 500 µg/mL: 32 mm
[6]; strain EOE 30
  zone of inhibition at 500 µg/mL: 34 mm
[6]; strain EOE 35
  zone of inhibition at 500 µg/mL: 32 mm
[6]; strain EOE 41
  zone of inhibition at 500 µg/mL: 28 mm
[6]; strain EOE 42
  zone of inhibition at 500 µg/mL: 26 mm
[6]; strain EOE 45
  zone of inhibition at 500 µg/mL: 28 mm
[6]; strain EOE 52
  zone of inhibition at 500 µg/mL: 28 mm
[6]; strain EOE 54
  zone of inhibition at 500 µg/mL: 29 mm
[6]; strain EOE 57
  zone of inhibition at 500 µg/mL: 28 mm
[6]; strain S139_7_7
  zone of inhibition at 500 µg/mL: 24 mm
[6]; strain S197_1_1
  zone of inhibition at 500 µg/mL: 29 mm
[6]; strain S197_1_8
  zone of inhibition at 500 µg/mL: 28 mm
[6]; strain S197_1_9
  zone of inhibition at 500 µg/mL: 28 mm
[6]; strain S197_1_10
  zone of inhibition at 500 µg/mL: 28 mm
[6]; strain S295_1_1
  zone of inhibition at 500 µg/mL: 30 mm
[6]; strain S295_1_2
  zone of inhibition at 500 µg/mL: 30 mm
[6]; strain S295_1_3
  zone of inhibition at 500 µg/mL: 32 mm
[6]; strain S364_5_11
  zone of inhibition at 500 µg/mL: 30 mm
[6]; strain S364_5_12
  zone of inhibition at 500 µg/mL: 28 mm
[6]; strain Sa_TPS 3026
  zone of inhibition at 500 µg/mL: 29 mm
[6]; strain Sa_TPS 3072
  zone of inhibition at 500 µg/mL: 28 mm
[6]; strain Sa_TPS 3092
  zone of inhibition at 500 µg/mL: 29 mm
[6]; strain Sa_TPS 3097
  zone of inhibition at 500 µg/mL: 34 mm
[6]; strain Sa_TPS 3103
  zone of inhibition at 500 µg/mL: 32 mm
[6]; strain Sa_TPS 3104
  zone of inhibition at 500 µg/mL: 32 mm
[6]; strain Sa_TPS 3106
  zone of inhibition at 500 µg/mL: 28 mm
[6]; strain Sa_TPS 3118
  zone of inhibition at 500 µg/mL: 28 mm
[6]; strain Sa_TPS 3133
  zone of inhibition at 500 µg/mL: 28 mm
[6]; strain Sa_TPS 3134
  zone of inhibition at 500 µg/mL: 26 mm
[6]; strain USFL 008
  zone of inhibition at 500 µg/mL: 26 mm
[6]; strain USFL 009
  zone of inhibition at 500 µg/mL: 28 mm
[6]; strain USFL 012
  zone of inhibition at 500 µg/mL: 28 mm
[6]; strain USFL 016
  zone of inhibition at 500 µg/mL: 32 mm
[6]; strain USFL 018
  zone of inhibition at 500 µg/mL: 30 mm
[6]; strain USFL 020
  zone of inhibition at 500 µg/mL: 30 mm
[6]; strain USFL 021
  zone of inhibition at 500 µg/mL: 29 mm
[6]; strain USFL 028
  zone of inhibition at 500 µg/mL: 28 mm
[6]; strain USFL 035
  zone of inhibition at 500 µg/mL: 28 mm
[6]; strain USFL 054
  zone of inhibition at 500 µg/mL: 28 mm
[6]; strain not given
  zone of inhibition at 500 µg/mL: 22 mm
HEK293 cells; HEK 293
  Concentration toxic to HEK 293 cells: >32 µg/mL
HEK293 cells; set concentration of 32 μg/mL
  toxicity towards the HEK293 cell line (in words): no toxicity
Red blood cells
  Hemolytic activity (HC10): >32 µg/mL
